This note sets out measurements from patent US6030960A, “Method of treating hepatitis virus infections” (priority 1998, dated 2000).

Molecules are shown by their SMILES. Where “and” joins values, the source holds several entries; their conditions need not be identical. Equal values may be shown once.

Common to all, as to assay type: cell-based
The subject of data set [1] is Hepatitis B virus. Briefly: Effect of alkyl lipids on HBV replication in HBV persistently infected human HEP G2 cells (Table 6). The settings on record: for Intracellular HBV DNA, Mono (episomal 3.2-3.8 Kb HBV genomes) / Intracellular HBV DNA, RI (replication intermediates): nine days. The protocol: Cells were treated with a particular compound for nine days at 37° C. Analysis of intracellular HEIV DNA was done 24 hours following the ninth day of treatment. […] The levels of integrated HBV DNA in each cellular DNA preparation were used to calculate the levels of episomal 3.2-3.8 Kb HBV genomes (Mono) and HBV DNA replication intermediates (RI). A zero value indicates an undetectable level of HBV virion DNA. The sensitivity cut-off was 0.1 pg DNA/ml of culture medium.

The nature of data set [2]: Cytotoxicity in HBV persistently infected human HEP G2 cells, neutral red dye uptake (Table 5). The settings on record: human, hep-g2 cells, Trial 2, read-out: % of Control Neutral Red Dye Uptake. An excerpt:
(§1) Initially, evaluations of the alkyl lipids were done to determine whether the compounds were cytotoxic to the cells at concentrations having anti-HBV activity. The assay methodology is szt forth in Korba and Germ, Antiviral Res., 19, 55-70 (1992), incorporated by reference herein. Briefly, these cell cytotoxicity evaluations were done in 96-well plates seeded with HEP-G2 cell monolayers. The hepatoblastoma cell line HEP-G2 transfected with a plasmid carrying the gene that confers resistance to […] and four 5'-3' tandem copies of the Hepatitis B virus genome was obtained from Dr. George Acs. Proc. Natl. Acad. Sci. USA, 84, 1005-1009 (1987). Serial concentrations of compound were added to the RPMI-1640 growth medium and the growth medium was added to the 96-well plates containing the cell monolayers. The cells were incubated for a total of nine days at 37° C. The compound-containing medium was periodically replaced. Each compound was tested at four serial concentrations in triplicate. After nine days of treatment and incubation, 0.01% neutral red dye (Sigma, Inc.) was added to the overlay medium. Cell cytotoxicity was quantitated by measuring the average A510. Values in Table 1 represent the percentage of average A510 values (±standard deviation) relative to nine non-treated control wells.
An analysis was periormed to determine the cytotoxicity of the following compounds in human HEP-G2 cells persistently infected with HBV: CP-51, CP-49, CP-9, CP-126, lyso PAF and CP-7. 2'-3'-Dideoxycytidine (ddC) was used as a control in this cytotoxicity analysis. The toxicity analyses were performed in 96-well flat bottomed tissue culture plates following the same procedure set forth in Example 6 above. Each compound was tested at four concentrations, each in triplicate cultures. Uptake of neutral red dye was used to determine the relative level of toxicity. The absorbance of internalized dye at […] (A510) was used for the quantitative analysis.
Values are presented as a percentage of the average A510 values (± standard deviations) in ninz separate cultures of untreated cells maintained on the same 96-well plate as the test compounds. The percentage of dye uptake in the nine control cultures was 100±1.

The test system of data set [3] is Hepatitis B virus. Briefly: Effect on synthesis of antigen markers in persistently infected human HEP G2 cell cultures (Table 7). The note with it: nine days; for activity at 10 µM: Hepatitis B virus, HepG2, 216 h. Here is the method: Cells were treated with compound for nine days at 37° C. The overlay medium was harvested to measure levels of HBsAg, HBeAg and virion DNA. HBsAg and HBeAg were assayed by EIA (Abbott Laboratories). Virion DNA levels were measured as described in section B above.

Data set [4] has as its system Hepatitis B virus. As to the kind of experiment: Anti-hepatitis B virus activity in HEP-G2 cells persistently infected with HBV (Table 2). The settings on record: 10 μM; for activity against HBV-induced virion DNA and HBeAg syntheses: in words; for activity at 10 µM: Hepatitis B virus, HepG2, 216 h, 9 days treatment. Here is the method:
HEP-G2 cells persistently infected with HBV were treated daily with fresh D-MEM containing 20% FBS and 10 μM compound. After 9 days incubation and treatment, the overlay medium was harvested to assay the quantity of Hepatitis B virus s antigen (HBsAg) and HBeAg by EIA (Abbott Laboratories). The overlay medium was diluted to levels of antigen in the linear range of the assay. Standard curves using dilutions of positive HBsAg and HBeAg controls were included in each assay. Virion DNA was assayed using the method set forth in Korba and Gerin, Antiviral Res., 19, 5,5-70 (1992), incorporated by reference herein. HBV DNA was extracted from the overlay medium containing virus particles and analyzed by a slot-blot hybridization technique using ^32 P-labelled 3.2 Kb Eco R1 HBV DNA fragment by comparisons to HBV standards present on nitrocellulose filters using an AMBIS beta scanner. EC90 values (90% effective concentration, i.e., drug concentration which induces a 90% decrease in the levels of HBV DNA replication intermediates in treated versus control cells) were calculated by linear regression analysis. The relative levels of HBsAg, HBeAg and virion DNA were calulated as a percentage of the average levels obtained from the untreated controls.

Data set [5] can be described thus: Cytotoxicity of alkyl lipids, neutral red dye uptake (Table 1). The note with it: human, hep-g2 cells.
Source text: as §1

[6] abbreviates: read-out: Relative Level of HBeAg.
Setting [7] is: read-out: Relative Level of HBsAg.
Where [8] appears, read: read-out: Relative Level of Virion DNA.

Regarding `CCCCCCCCCCCCCCCCCCOCC(O)COP(=O)([O-])OCC[N+](C)(C)C` (racemic) [lyso PAF, rac-3-octadecyloxy-2-hydroxy-1-propyl phosphocholine], the “HBV Virion DNA” value with Hepatitis B virus [1] (0.1 μM, Day 0) was 62 pg/ml Culture Medium and 60 pg/ml Culture Medium and 81 pg/ml Culture Medium and 57 pg/ml Culture Medium; in the data set on Hepatitis B virus [1] (0.1 μM, Day 3), 77 pg/ml Culture Medium and 81 pg/ml Culture Medium and 70 pg/ml Culture Medium and 69 pg/ml Culture Medium; in the data set on Hepatitis B virus [1] (0.1 μM, Day 6), 80 pg/ml Culture Medium and 79 pg/ml Culture Medium and 64 pg/ml Culture Medium and 88 pg/ml Culture Medium; in the data set on Hepatitis B virus [1] (0.1 μM, Day 9) it was 84 pg/ml Culture Medium and 96 pg/ml Culture Medium and 67 pg/ml Culture Medium and 92 pg/ml Culture Medium; in the data set on Hepatitis B virus [1] (1 μM, Day 0), 52 pg/ml Culture Medium and 51 pg/ml Culture Medium and 63 pg/ml Culture Medium and 65 pg/ml Culture Medium; in the data set on Hepatitis B virus [1] (1 μM, Day 3), 69 pg/ml Culture Medium and 61 pg/ml Culture Medium and 53 pg/ml Culture Medium. The “HBV Virion DNA” value in the data set with Hepatitis B virus [1] (1 μM, Day 6) was 72 pg/ml Culture Medium and 79 pg/ml Culture Medium and 81 pg/ml Culture Medium; in the data set with Hepatitis B virus [1] (1 μM, Day 9) it was 74 pg/ml Culture Medium and 83 pg/ml Culture Medium and 59 pg/ml Culture Medium and 88 pg/ml Culture Medium; with Hepatitis B virus [1] (10 μM, Day 0), 52 pg/ml Culture Medium and 62 pg/ml Culture Medium and 60 pg/ml Culture Medium and 68 pg/ml Culture Medium; in the data set with Hepatitis B virus [1] (10 μM, Day 3) it was 65 pg/ml Culture Medium and 71 pg/ml Culture Medium and 51 pg/ml Culture Medium and 50 pg/ml Culture Medium; in the data set with Hepatitis B virus [1] (10 μM, Day 6), 36 pg/ml Culture Medium and 34 pg/ml Culture Medium and 30 pg/ml Culture Medium and 32 pg/ml Culture Medium; in the data set on Hepatitis B virus [1] (10 μM, Day 9, 0 = undetectable, cut-off 0.1 pg DNA/ml), 14 pg/ml Culture Medium and 18 pg/ml Culture Medium and 11 pg/ml Culture Medium and 13 pg/ml Culture Medium. Besides, the “Intracellular HBV DNA, Mono (episomal 3.2-3.8 Kb HBV genomes)” value was 2.5 pg/μg Cell DNA and 2.1 pg/μg Cell DNA and 2.0 pg/μg Cell DNA with Hepatitis B virus [1] (0.1 μM); 2.6 pg/μg Cell DNA and 2.9 pg/μg Cell DNA and 2.4 pg/μg Cell DNA in the data set on Hepatitis B virus [1] (1 μM); 2.0 pg/μg Cell DNA and 2.4 pg/μg Cell DNA and 2.6 pg/μg Cell DNA and 2.8 pg/μg Cell DNA with Hepatitis B virus [1] (10 μM). Further, the “Intracellular HBV DNA, RI (replication intermediates)” value was 84 pg/μg Cell DNA and 96 pg/μg Cell DNA and 67 pg/μg Cell DNA and 71 pg/μg Cell DNA in the data set on Hepatitis B virus [1] (0.1 μM); 74 pg/μg Cell DNA and 83 pg/μg Cell DNA and 59 pg/μg Cell DNA and 84 pg/μg Cell DNA in the data set on Hepatitis B virus [1] (1 μM); 15 pg/μg Cell DNA and 22 pg/μg Cell DNA and 18 pg/μg Cell DNA and 21 pg/μg Cell DNA with Hepatitis B virus [1] (10 μM). Also, in data set [2] (3 μM), the viability at 216 h, 3 µM came to 98 ± 2%. Besides, the viability at 216 h, 10 µM in data set [2] (10 μM) stood at 99 ± 1%. Moreover, in data set [2] (30 μM), the viability at 216 h, 30 µM was determined as 98 ± 2%. Besides, in data set [2] (100 μM), the viability at 216 h, 100 µM was 40 ± 6%. Moreover, the “Relative Level of HBeAg” value in the data set with Hepatitis B virus [3] (10 μM, 12960 min) is given as 50 % of Untreated Control. In the data set with Hepatitis B virus [3] (10 μM, 12960 min), the “Relative Level of HBsAg” value was 80 % of Untreated Control. The “Relative Level of Virion DNA” value in the data set with Hepatitis B virus [3] (10 μM, 12960 min) is 15 % of Untreated Control. For the same molecule, the activity at 10 µM was 45% with Hepatitis B virus [3] (read-out: Relative Level of HBeAg, 10 μM); 78% with Hepatitis B virus [3] (read-out: Relative Level of HBsAg, 10 μM); 13% with Hepatitis B virus [3] (read-out: Relative Level of Virion DNA, 10 μM).

Consider `CCCCCCCCCCCCCCCC(=O)NCC(COP(=O)([O-])OCC[N+](C)(C)C)OC` (centres unmarked) [CP-48], for which the “activity against HBV-induced virion DNA and HBeAg syntheses” value in the data set on Hepatitis B virus [4] was “no significant activity”. For the same molecule, in the data set on Hepatitis B virus [4] (setting [6]), the activity at 10 µM is 88%. For the same molecule, in the data set with Hepatitis B virus [4] (setting [7]), the activity at 10 µM came out at 73%. In addition, the activity at 10 µM with Hepatitis B virus [4] (setting [8]) was 96%. Also, in data set [5], the cytotoxicity at 216 h, 30 µM amounted to 39%; the viability at 216 h, 3 µM is 102 ± 1%; the viability at 216 h, 10 µM came to 97 ± 1%; the viability at 216 h, 30 µM was 61 ± 2%. Besides, the viability at 216 h, 100 µM in data set [5] turned out to be 24 ± 1%.

As to `CCCCCCCCCCCCCCCCCC(=O)NCC(COP(=O)([O-])OCC[N+](C)(C)C)OC` (centres unmarked) [CP-50], in the data set with Hepatitis B virus [4], the “activity against HBV-induced virion DNA and HBeAg syntheses” value was “no significant activity”. In the data set with Hepatitis B virus [4] (setting [6]), the activity at 10 µM was determined as 93%. Moreover, the activity at 10 µM in the data set with Hepatitis B virus [4] (setting [7]) turned out to be 104%. In the data set on Hepatitis B virus [4] (setting [8]), the activity at 10 µM was 88%. In data set [5], the cytotoxicity at 216 h, 30 µM came to 0%; the cytotoxicity at 216 h, 100 µM is 5%; the viability at 216 h, 3 µM was 97 ± 2%; the viability at 216 h, 10 µM turned out to be 99 ± 2%. Moreover, in data set [5], the viability at 216 h, 30 µM worked out at 100 ± 3% and the viability at 216 h, 100 µM is 95 ± 2%.
